Data reported in the NIST ThermoML archive (doi:10.1016/j.jct.2016.05.021).
± gives the expanded uncertainty stated by the source.

How the values were obtained:
[1] = xn = mol fraction of the nth substance listed; conditions: 100 kPa, Liquid, x1 = 1; for speed of sound: Frequency=3 MHz, Sing-around technique in a fixed-path interferometer; for mass density: Vibrating tube method
[2] = refractive index (Na D-line) (dimensionless); xn = mol fraction of the nth substance listed; conditions: 100 kPa, Liquid, Standard Abbe refractometry, x1 = 1
[3] = 100 kPa; for speed of sound: Frequency=3 MHz, Sing-around technique in a fixed-path interferometer; for mass density: Vibrating tube method
[4] = refractive index (Na D-line) (dimensionless); conditions: 100 kPa, Standard Abbe refractometry

## CCCC[n+]1ccn(C)c1.O=S(=O)([N-]S(=O)(=O)C(F)(F)F)C(F)(F)F + O=C1CCCN1
[1]; 298.15 K
  speed of sound: 1227.9 ± 1.3 m/s
  mass density: 1433.72 ± 1 kg/m3
[1]; 303.15 K
  speed of sound: 1216.8 ± 1.3 m/s
  mass density: 1428.95 ± 1 kg/m3
[1]; 308.15 K
  speed of sound: 1205.8 ± 1.2 m/s
  mass density: 1424.18 ± 1 kg/m3
[1]; 313.15 K
  speed of sound: 1195 ± 1.2 m/s
  mass density: 1419.41 ± 1 kg/m3
[1]; 318.15 K
  speed of sound: 1184.2 ± 1.2 m/s
  mass density: 1414.64 ± 1 kg/m3
[1]; 323.15 K
  speed of sound: 1173.6 ± 1.2 m/s
  mass density: 1409.87 ± 1 kg/m3
[2]; 298.15 K
  refractive index: 1.42671 ± 0.00033
[2]; 303.15 K
  refractive index: 1.42523 ± 0.00033
[2]; 308.15 K
  refractive index: 1.42374 ± 0.00033
[2]; 313.15 K
  refractive index: 1.42225 ± 0.00033
[2]; 318.15 K
  refractive index: 1.42076 ± 0.00033
[2]; 323.15 K
  refractive index: 1.41923 ± 0.00033

## CCCC[n+]1ccn(C)c1.O=S(=O)([N-]S(=O)(=O)C(F)(F)F)C(F)(F)F
[3]; 298.15 K, Liquid
  speed of sound: 1227.9 ± 1.3 m/s
  mass density: 1433.72 ± 1 kg/m3
[3]; 303.15 K, Liquid
  speed of sound: 1216.8 ± 1.3 m/s
  mass density: 1428.95 ± 1 kg/m3
[3]; 308.15 K, Liquid
  speed of sound: 1205.8 ± 1.2 m/s
  mass density: 1424.18 ± 1 kg/m3
[3]; 313.15 K, Liquid
  speed of sound: 1195 ± 1.2 m/s
  mass density: 1419.41 ± 1 kg/m3
[3]; 318.15 K, Liquid
  speed of sound: 1184.2 ± 1.2 m/s
  mass density: 1414.64 ± 1 kg/m3
[3]; 323.15 K, Liquid
  speed of sound: 1173.6 ± 1.2 m/s
  mass density: 1409.87 ± 1 kg/m3
[4]; 298.15 K, Liquid
  refractive index: 1.42671 ± 0.00033
[4]; 303.15 K, Liquid
  refractive index: 1.42523 ± 0.00033
[4]; 308.15 K, Liquid
  refractive index: 1.42374 ± 0.00033
[4]; 313.15 K, Liquid
  refractive index: 1.42225 ± 0.00033
[4]; 318.15 K, Liquid
  refractive index: 1.42076 ± 0.00033
[4]; 323.15 K, Liquid
  refractive index: 1.41923 ± 0.00033

## O=C1CCCN1 [2-pyrrolidinone]
[3]; 298.15 K, Metastable liquid
  speed of sound: 1634.3 ± 1.4 m/s
  mass density: 1107.16 ± 1 kg/m3
[3]; 303.15 K, Metastable liquid
  speed of sound: 1617.7 ± 1.4 m/s
  mass density: 1103.07 ± 1 kg/m3
[3]; 308.15 K, Metastable liquid
  speed of sound: 1602.3 ± 1.4 m/s
  mass density: 1098.99 ± 1 kg/m3
[3]; 313.15 K, Metastable liquid
  speed of sound: 1585.4 ± 1.4 m/s
  mass density: 1094.9 ± 1 kg/m3
[3]; 318.15 K, Metastable liquid
  speed of sound: 1569.4 ± 1.4 m/s
  mass density: 1090.82 ± 1 kg/m3
[3]; 323.15 K, Metastable liquid
  speed of sound: 1553.5 ± 1.4 m/s
  mass density: 1086.75 ± 1 kg/m3
[4]; 298.15 K, Metastable liquid
  refractive index: 1.48591 ± 0.00033
[4]; 303.15 K, Metastable liquid
  refractive index: 1.48403 ± 0.00033
[4]; 308.15 K, Metastable liquid
  refractive index: 1.48218 ± 0.00033
[4]; 313.15 K, Metastable liquid
  refractive index: 1.48033 ± 0.00033
[4]; 318.15 K, Metastable liquid
  refractive index: 1.47841 ± 0.00033
[4]; 323.15 K, Metastable liquid
  refractive index: 1.47649 ± 0.00033
